Counter-ions that a name gives are not always drawn. Like-named read-outs stand apart in the source and are kept apart here.
What was measured:
[1] = target: PI3Kδ (p110δ/p85α) Recombinant Human Protein (Homo sapiens (Human), UniProt O00329); assay: PI3Kδ Scintillation Proximity Assay; format: biochemical
Method in brief: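 Recombinant human p110δ/p85α (3.4 nM) with 20 μM PIP2 and 2 μM ATP plus [γ-33P]ATP, in 20 mM MOPS pH 6.7, 10 mM MgCl2, 5 mM DTT, 0.03% CHAPS, 2% DMSO; 120 min at room temperature. Product captured on WGA SPA beads, scintillation counted; IC50 from percent-of-control curves.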

[2] = target: PI3Kγ (p110γ) Recombinant Human Protein (Homo sapiens (Human), UniProt P48736); assay: PI3K-γ Scintillation Proximity Assay; format: biochemical; details: read-out: PI3Kγ IC50
PI3Kγ (p110γ) Recombinant Human Protein, sequence (P48736 whole entry): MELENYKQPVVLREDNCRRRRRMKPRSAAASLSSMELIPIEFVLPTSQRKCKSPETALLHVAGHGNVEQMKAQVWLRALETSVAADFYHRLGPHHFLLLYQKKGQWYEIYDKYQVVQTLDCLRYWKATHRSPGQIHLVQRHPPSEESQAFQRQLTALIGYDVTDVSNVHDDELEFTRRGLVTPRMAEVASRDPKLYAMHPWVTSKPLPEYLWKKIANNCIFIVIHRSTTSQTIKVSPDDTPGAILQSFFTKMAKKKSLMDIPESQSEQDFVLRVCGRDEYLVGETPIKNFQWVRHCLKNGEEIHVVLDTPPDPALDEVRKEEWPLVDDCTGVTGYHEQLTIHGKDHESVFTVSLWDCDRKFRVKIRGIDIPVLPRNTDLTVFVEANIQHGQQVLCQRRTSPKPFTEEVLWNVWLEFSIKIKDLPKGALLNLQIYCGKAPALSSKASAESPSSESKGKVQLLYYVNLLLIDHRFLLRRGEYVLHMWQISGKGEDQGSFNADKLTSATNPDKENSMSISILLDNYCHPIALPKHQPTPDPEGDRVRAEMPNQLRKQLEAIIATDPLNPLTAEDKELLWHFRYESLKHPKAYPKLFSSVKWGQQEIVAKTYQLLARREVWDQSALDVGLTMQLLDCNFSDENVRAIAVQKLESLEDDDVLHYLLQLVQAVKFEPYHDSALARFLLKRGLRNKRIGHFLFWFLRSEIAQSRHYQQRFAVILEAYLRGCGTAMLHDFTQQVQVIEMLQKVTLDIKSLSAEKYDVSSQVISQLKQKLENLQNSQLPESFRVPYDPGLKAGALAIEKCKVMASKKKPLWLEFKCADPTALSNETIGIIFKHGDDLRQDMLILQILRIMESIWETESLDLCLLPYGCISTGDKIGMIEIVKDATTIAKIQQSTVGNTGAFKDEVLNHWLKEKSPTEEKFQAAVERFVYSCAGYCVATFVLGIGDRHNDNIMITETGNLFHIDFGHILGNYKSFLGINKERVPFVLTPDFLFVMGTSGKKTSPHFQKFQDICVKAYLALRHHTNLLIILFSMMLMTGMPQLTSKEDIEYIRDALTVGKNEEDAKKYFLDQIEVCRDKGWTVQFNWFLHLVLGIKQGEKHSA
Method in brief: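 Recombinant human p110γ assayed at room temperature in 20 mM MOPS pH 6.7, 10 mM MgCl2, 5 mM DTT, 0.03% CHAPS, 2% DMSO, with 20 μM PIP2 and 2 μM ATP plus [γ-33P]ATP. Product captured on WGA SPA beads overnight and counted; IC50 fitted from % of solvent-control activity versus log inhibitor concentration.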

[3] = test system: Phosphorylated Ribosomal Protein S6 (RPS6); assay: THP-1 RPS6 ELISA Assay; format: cell-based, Human; details: THP-1 cells, read-out: PI3Kγ_THP1_RPS6_ELISA IC50
Method: To measure the Phosphorylated Ribosomal Protein S6 (RPS6) in cell lysates, THP-1 cells (Human Acute Monocytic Leukemia) are purchased from ATCC (Manassas, Va.) and maintained in RPMI with 10% FBS (Gibco/Life Technologies, Carlsbad, Calif.). For the assay, THP-1 cells are serum starved overnight in RPMI, then plated in RPMI (2×10^5 cells/well in 90 μL) into 96-well flat-bottom tissue culture treated plates (Corning, Corning, N.Y.), in the presence or absence of a concentration range of test compounds. Covered plates are incubated for 2 hours at 37° C., 5% CO2 then treated with or without 10 nM MCP-1 (MYBioSource, San Diego, Calif.) for 15 minutes at 37° C., 5% CO2. Plates are centrifuged at 1600 RPM and supernatants are removed. Cells are lysed in Lysis Buffer (Cell Signaling, Danvers, Mass.) with Protease Inhibitor (Calbiochem/EMD, Germany), PMSF (Sigma, St Louis Mo.), HALTS (Thermo Fisher, Rockford, Ill.) for 30 min on wet ice. Cell lysates are frozen at −80° C. before testing. The lysates are tested in the Human/Mouse/Rat Phospho-RPS6 ELISA (R&D Systems, Inc. Minn, Minn.). The plate is measured using a microplate reader (SpectraMax M5 —Molecular Devices, LLC Sunnyvale, Calif.) set to 450 nm with a wavelength correction of 540. IC50 determination is performed by fitting the curve of inhibitor percent inhibition versus the log of the inhibitor concentration using the GraphPad Prism 5.0 software.

PI3Kδ (p110δ/p85α) Recombinant Human Protein, sequence (O00329 whole entry): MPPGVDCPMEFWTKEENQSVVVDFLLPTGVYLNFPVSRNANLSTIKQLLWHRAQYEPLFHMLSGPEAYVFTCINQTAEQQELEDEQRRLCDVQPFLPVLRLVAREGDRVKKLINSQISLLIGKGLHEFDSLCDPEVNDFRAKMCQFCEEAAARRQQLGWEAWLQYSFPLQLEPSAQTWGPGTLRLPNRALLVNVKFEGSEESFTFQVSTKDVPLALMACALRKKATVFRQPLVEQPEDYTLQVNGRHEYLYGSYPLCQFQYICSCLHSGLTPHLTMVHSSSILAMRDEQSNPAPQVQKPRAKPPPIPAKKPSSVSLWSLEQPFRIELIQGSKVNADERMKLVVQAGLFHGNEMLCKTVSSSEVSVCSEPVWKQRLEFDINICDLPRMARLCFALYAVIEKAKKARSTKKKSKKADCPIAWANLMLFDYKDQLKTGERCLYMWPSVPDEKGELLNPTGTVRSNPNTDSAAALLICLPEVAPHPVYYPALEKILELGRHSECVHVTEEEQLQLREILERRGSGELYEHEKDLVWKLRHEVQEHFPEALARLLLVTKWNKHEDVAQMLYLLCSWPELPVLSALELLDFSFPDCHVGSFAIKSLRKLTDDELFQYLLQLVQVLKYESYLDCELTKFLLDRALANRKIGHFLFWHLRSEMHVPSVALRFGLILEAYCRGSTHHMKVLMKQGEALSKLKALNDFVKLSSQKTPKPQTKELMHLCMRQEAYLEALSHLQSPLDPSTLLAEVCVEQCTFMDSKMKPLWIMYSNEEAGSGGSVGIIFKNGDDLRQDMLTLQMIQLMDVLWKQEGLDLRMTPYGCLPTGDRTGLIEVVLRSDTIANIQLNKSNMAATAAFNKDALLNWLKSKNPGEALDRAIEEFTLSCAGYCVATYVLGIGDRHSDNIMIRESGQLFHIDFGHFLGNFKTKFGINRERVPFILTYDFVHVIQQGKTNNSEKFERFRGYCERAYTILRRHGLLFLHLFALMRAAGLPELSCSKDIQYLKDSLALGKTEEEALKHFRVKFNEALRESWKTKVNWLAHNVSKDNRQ
PI3Kδ (p110δ/p85α) Recombinant Human Protein, sequence (P27986 whole entry partner): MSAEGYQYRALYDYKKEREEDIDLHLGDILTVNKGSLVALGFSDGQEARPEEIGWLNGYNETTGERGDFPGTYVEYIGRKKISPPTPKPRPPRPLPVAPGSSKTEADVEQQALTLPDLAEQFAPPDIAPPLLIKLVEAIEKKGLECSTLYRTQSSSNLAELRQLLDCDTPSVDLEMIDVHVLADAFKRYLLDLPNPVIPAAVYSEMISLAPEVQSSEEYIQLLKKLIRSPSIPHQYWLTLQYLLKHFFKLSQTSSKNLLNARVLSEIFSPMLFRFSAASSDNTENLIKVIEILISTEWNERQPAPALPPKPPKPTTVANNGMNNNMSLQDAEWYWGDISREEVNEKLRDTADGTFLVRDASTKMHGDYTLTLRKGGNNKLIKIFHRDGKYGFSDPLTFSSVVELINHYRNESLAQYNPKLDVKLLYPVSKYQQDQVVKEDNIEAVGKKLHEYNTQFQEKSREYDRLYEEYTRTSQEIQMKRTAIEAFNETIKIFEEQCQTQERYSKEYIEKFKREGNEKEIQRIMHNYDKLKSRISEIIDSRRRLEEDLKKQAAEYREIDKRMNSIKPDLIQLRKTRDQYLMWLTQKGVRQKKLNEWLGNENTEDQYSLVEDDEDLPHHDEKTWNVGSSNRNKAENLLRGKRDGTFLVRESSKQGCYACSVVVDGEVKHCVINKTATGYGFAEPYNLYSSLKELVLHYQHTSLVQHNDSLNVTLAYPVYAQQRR

IC50 [1] | IC50 [2] | IC50 ([3]; Homo sapiens) | IC50 [3] | Compound
100 to 500 nM | < 100 nM | < 100 nM |  | Cc1ncc(-c2cn3c(-c4cc(S(=O)(=O)N[C@H]5CC[C@H](O)CC5)ccc4C)cnc3c(N)n2)s1 [Example 35, 3-[8-Amino-6-(2-methylthiazol-5-yl)imidazo[1,2-a]pyrazin-3-yl]-N-(trans-4-hydroxycyclohexyl)-4-methylbenzenesulfonamide]
500 to 2000 nM | < 100 nM | > 1000 nM |  | Cc1ccc(S(=O)(=O)NC(C)(C)C(N)=O)cc1-c1cnc2c(N)ncnn12 [Example 190, 2-((3-(4-aminoimidazo[2,1-f][1,2,4]triazin-7-yl)-4-methylphenyl)sulfonamido)-2-methylpropanamide trifluoroacetate]
500 to 2000 nM | < 100 nM | 100 to 500 nM |  | Cc1ccc(S(=O)(=O)N(CCC#N)C2CCCCC2)cc1-c1cnc2c(N)nc(C(F)(F)F)cn12 [Example 301, 3-(8-amino-6-(trifluoromethyl)imidazo[1,2-a]pyrazin-3-yl)-N-(2-cyanoethyl)-N-cyclohexyl-4-methylbenzenesulfonamide]
100 to 500 nM | < 100 nM | 100 to 500 nM |  | Cc1ccc(S(=O)(=O)NC23COC(C)(C2)C3)cc1-c1cnc2c(N)ncnn12 [Example 424, 3-(4-Aminoimidazo[1,2-f][1,2,4]triazin-7-yl)-4-methyl-N-(1-methyl-2-oxabicyclo[2.1.1]hexan-4-yl)benzenesulfonamide trifluoroacetate salt]
500 to 2000 nM | < 100 nM | 500 to 1000 nM |  | Cc1ccc(S(=O)(=O)N[C@H]2C[C@@H](CO)C2)cc1-c1cnc2c(N)ncnn12 [Example 61, 3-(4-Aminoimidazo[2,1-f][1,2,4]triazin-7-yl)-N-[cis-3-(hydroxymethyl)cyclobutyl]-4-methylbenzenesulfonamide]
500 to 2000 nM | < 100 nM | 500 to 1000 nM |  | Cc1ccc(S(=O)(=O)N2CCOCC2(C)C)cc1-c1cnc2c(N)ncnn12 [Example 156, 7-(5-((3,3-dimethylmorpholino)sulfonyl)-2-methylphenyl)imidazo[2,1-f][1,2,4]triazin-4-amine]
100 to 500 nM | < 100 nM | 100 to 500 nM |  | Cc1ccc(S(=O)(=O)NC23CCC(C(C)(C)O)(CC2)OC3)cc1-c1cnc2c(N)nc(C(F)(F)F)cn12 [Example 441, 3-(8-Amino-6-(trifluoromethyl)imidazo[1,2-a]pyrazin-3-yl)-N-(1-(2-hydroxypropan-2-yl)-2-oxabicyclo[2.2.2]octan-4-yl)-4-methylbenzenesulfonamide trifluoroacetate salt]
100 to 500 nM | < 100 nM | 500 to 1000 nM |  | Cc1ccc(S(=O)(=O)NC23CCC(CN4CC(F)(F)C4)(CC2)OC3)cc1-c1cnc2c(N)ncnn12 [Example 435, 3-(4-Aminoimidazo[1,2-f][1,2,4]triazin-7-yl)-N-(1-((3,3-difluoroazetidin-1-yl)methyl)-2-oxabicyclo[2.2.2]octan-4-yl)-4-methylbenzenesulfonamide trifluoroacetate salt]
100 to 500 nM | < 100 nM | 100 to 500 nM |  | Cc1cn2c(-c3cccc(S(=O)(=O)NC45CCC(CO)(C4)C5)c3)cnc2c(N)n1 [Example 381, 3-(8-Amino-6-methylimidazo[1,2-a]pyrazin-3-yl)-N-(4-(hydroxymethyl)bicyclo[2.1.1]hexan-1-yl)benzenesulfonamide]
500 to 2000 nM | 100 to 500 nM | > 1000 nM |  | Cc1ccc(S(=O)(=O)N[C@H]2CC[C@H](N)CC2)cc1-c1cnc2c(N)nccn12 [Example 58, N-(trans-4-Aminocyclohexyl)-3-(8-aminoimidazo[1,2-a]pyrazin-3-yl)-4-methylbenzenesulfonamide]
100 to 500 nM | < 100 nM | 100 to 500 nM |  | Cc1ccc(S(=O)(=O)N[C@@H](C)CO)cc1-c1cnc2c(N)nc(C(F)(F)F)nn12 [Example 249, (S)-3-(4-Amino-2-(trifluoromethyl)imidazo[2,1-f][1,2,4]triazin-7-yl)-N-(1-hydroxypropan-2-yl)-4-methylbenzenesulfonamide]
< 100 nM | < 100 nM | > 1000 nM |  | COc1nccc(-c2cn3c(-c4cc(S(C)(=O)=O)ccc4C)cnc3c(N)n2)c1F [Example 483, 6-(3-Fluoro-2-methoxypyridin-4-yl)-3-(2-methyl-5-(methylsulfonyl)phenyl)imidazo[1,2-a]pyrazin-8-amine trifluoroacetate]
100 to 500 nM | < 100 nM | 100 to 500 nM |  | Cc1ccc(S(C)(=O)=O)cc1-c1cnc2c(N)nc(-c3ccncc3F)cn12 [Example 476, 6-(3-Fluoropyridin-4-yl)-3-(2-methyl-5-(methylsulfonyl)phenyl)imidazo[1,2-a]pyrazin-8-amine trifluoroacetate]
100 to 500 nM | < 100 nM | > 1000 nM |  | Cc1ccc(S(=O)(=O)N[C@H]2CC[C@H](O)CC2)cc1-c1cnc2c(N)cc(-c3ccnn3C)cn12 [Example 10, 3-[8-Amino-6-(1-methyl-1H-pyrazol-5-yl)imidazo[1,2-a]pyridin-3-yl]-N-(trans-4-hydroxycyclohexyl)-4-methylbenzenesulfonamide bis(trifluoroacetate)]
500 to 2000 nM | < 100 nM | 500 to 1000 nM |  | Cc1ccc(S(=O)(=O)N2CC(F)(F)C[C@H]2CO)cc1-c1cnc2c(N)ncnn12 [Example 212, (S)-(1-((3-(4-Aminoimidazo[2,1-f][1,2,4]triazin-7-yl)-4-methylphenyl)sulfonyl)-4,4-difluoropyrrolidin-2-yl)methanol]
100 to 500 nM | < 100 nM | < 100 nM |  | Cc1ccc(S(=O)(=O)NC23CC(C(C)(C)O)(C2)C3)cc1-c1cnc2c(N)nc(C(F)(F)F)cn12 [Example 282, 3-(8-Amino-6-(trifluoromethyl)imidazo[1,2-a]pyrazin-3-yl)-N-(3-(2-hydroxypropan-2-yl)bicyclo[1.1.1]pentan-1-yl)-4-methylbenzenesulfonamide trifluoroacetate salt]
100 to 500 nM | < 100 nM | 100 to 500 nM |  | Cc1ccc(S(=O)(=O)NC23CCC(c4cnco4)(CC2)OC3)cc1-c1cnc2c(N)ncnn12 [Example 440, 3-(4-Aminoimidazo[1,2-f][1,2,4]triazin-7-yl)-4-methyl-N-(1-(oxazol-5-yl)-2-oxabicyclo[2.2.2]octan-4-yl)benzenesulfonamide trifluoroacetate salt]
500 to 2000 nM | < 100 nM | < 100 nM |  | [2H]C([2H])([2H])c1ccc(S(=O)(=O)N(C)C23CCC(C#N)(C2)C3)cc1-c1cnc2c(N)ncnn12 [Example 261, 3-(4-Aminoimidazo[2,1-f][1,2,4]triazin-7-yl)-N-(4-cyanobicyclo[2.1.1]hexan-1-yl)-N-methyl-4-(methyl-d3)benzenesulfonamide]
100 to 500 nM | < 100 nM | 100 to 500 nM |  | Cc1ccc(S(=O)(=O)NC23CCC(O)(CC2)CC3)cc1-c1cnc2c(N)ncnn12 [Example 185, 3-(4-aminoimidazo[2,1-f][1,2,4]triazin-7-yl)-N-(4-hydroxybicyclo[2.2.2]octan-1-yl)-4-methylbenzenesulfonamide]
100 to 500 nM | < 100 nM |  | 100 to 500 nM | Cc1ccc(S(=O)(=O)NC23CCC(CC2)C3)cc1-c1cnc2c(N)ncnn12 [Example 180, 3-(4-aminoimidazo[1,2-f][1,2,4]triazin-7-yl)-N-(bicyclo[2.2.1]heptan-1-yl)-4-methylbenzenesulfonamide trifluoroacetate salt]
100 to 500 nM | < 100 nM |  | 100 to 500 nM | Cc1ccc(S(=O)(=O)N[C@H]2CC[C@@H](C#N)C2)cc1-c1cnc2c(N)nc(C(F)(F)F)nn12 (single isomer, unassigned) [Example 320]

Compound | IC50 [1] | IC50 [2] | IC50 ([3]; Homo sapiens) | IC50 [3]
Cc1ccc(S(=O)(=O)N2CC3(CC(O)C3)C2)cc1-c1cnc2c(N)ncnn12 [Example 145, 2-((3-(4-aminoimidazo[2,1-f][1,2,4]triazin-7-yl)-4-methylphenyl)sulfonyl)-2-azaspiro[3.3]heptan-6-ol, TFA] | 100 to 500 nM | < 100 nM |  | 100 to 500 nM
